Source: US4428936A, “Antibacterial composition for medical use” (Toyama Chemical Co., Ltd., priority 1978, dated 1984)

Legend:
Escherichia coli TK-3 [1] = assay: Minimum inhibitory concentration; format: cell-based; details: TK3; Escherichia coli TK-3 strain
Description: (§1) The minimum inhibitory concentration of T-1551 Na or Methicillin sodium against Escherichia coli TK-3 strain or Kleosiella pneumoniae Y-4 strain was greater than 800 μg/ml in each case.

[2] = test system: Klebsiella pneumoniae Y-4; assay: Minimum inhibitory concentration; format: cell-based; details: Y4; Klebsiella pneumoniae Y-4 strain
Description: as §1

[3] = test system: Pseudomonas aeruginosa S-111; assay: Growth-inhibition test on clinically isolated strain (agar, about 10^8 cells/ml); format: cell-based; parameters: key: (+) means that the test bacterium grew; (-) means that the test bacterium did not grow; details: T-1551 Na 0 μg/ml; Methicillin sodium alone by line b92-b100: 3200,1600,800,400,200,100,50,25,12.5 μg/ml; 18 hours, 37° C
Description: (§2) Heart Infusion agar containing a prescribed amount of Methicillin sodium or T-1551 Na was inoculated with the test bacterium at a rate of about 10^8 cells/ml. After incubation for 18 hours at 37° C., the growth of the test bacterium was inspected.

Escherichia coli TK-3 [4] = assay: as above; format: cell-based; parameters: key: (+) means that the test bacterium grew; (-) means that the test bacterium did not grow; details: T-1551 Na 0 μg/ml; Methicillin sodium alone by line b32-b40: 3200,1600,800,400,200,100,50,25,12.5 μg/ml; 18 hours, 37° C
Description: as §2

[5] = test system: Klebsiella pneumoniae Y-4; assay: as above; format: cell-based; parameters: key: (+) means that the test bacterium grew; (-) means that the test bacterium did not grow; details: T-1551 Na 0 μg/ml; Methicillin sodium alone by line b62-b70: 3200,1600,800,400,200,100,50,25,12.5 μg/ml; 18 hours, 37° C
Description: as §2

K. pneumoniae Y-4 = assay: Effect of combined use on experimental infection in mice (protection); format: in vivo, mice (ICR strain) infected with K. pneumoniae; details: challenge dose 5.7 × 10^7 cells/mouse, peritoneal; subcutaneous administration one and two hours after inoculation
Description: (§3) Male mice (5 mice per group) of the ICR strain, 4 weeks of age, were peritoneally inoculated with the prescribed number of pathogenic bacteria suspended in 5% mucin. After one hour and two hours following the inoculation, test preparations shown in Table 5 were subcuataneously administered to examine the protection effect.

K. pneumoniae Y-53 = assay: as above; format: in vivo, mice (ICR strain) infected with K. pneumoniae; details: challenge dose 1.0 × 10^7 cells/mouse, peritoneal; subcutaneous administration one and two hours after inoculation
Description: as §3

Escherichia coli GN 6299 = assay: Growth-inhibition test with potassium clavulanate; format: cell-based; parameters: key: (+) means that the test bacterium grew; (-) means that the test bacterium did not grow; details: T-1551 Na 0 μg/ml; potassium clavulanate alone by line b171,b173-b181: 100,(unlabelled),25,(unlabelled),6.25,(unlabelled),1.6,(unlabelled),0.4,(unlabelled) μg/ml
Description: as §2
(§4) The same operation as in Test Example 1 was repeated, except that the Methicillin sodium was replaced by potassium clavulanate and the test bacteria were replaced by those shown in Tables 6, 7 and 8, to obtain the results shown in Tables 6, 7 and 8.

[6] = test system: Pseudomonas aeruginosa GN 3345; assay: Growth-inhibition test with potassium clavulanate; format: cell-based; parameters: key: (+) means that the test bacterium grew; (-) means that the test bacterium did not grow; details: T-1551 Na 0 μg/ml; potassium clavulanate alone by line b219-b228: 100,(unlabelled),25,(unlabelled),12.5,(unlabelled),3.1,(unlabelled),0.4,(unlabelled) μg/ml
Description: as §2, §4

[7] = test system: Klebsiella pneumoniae GN 69; assay: Growth-inhibition test with potassium clavulanate; format: cell-based; parameters: key: (+) means that the test bacterium grew; (-) means that the test bacterium did not grow; details: T-1551 Na 0 μg/ml; potassium clavulanate alone by line b195,b197-b205: 100,(unlabelled),25,(unlabelled),6.25,(unlabelled),1.6,(unlabelled),0.4,(unlabelled) μg/ml
Description: as §2, §4

SMILES | MIC (Escherichia coli TK-3 [1]) [µg/mL] | MIC [2] [µg/mL] | growth of the test bacterium [3] | growth of the test bacterium (Escherichia coli TK-3 [4]) | growth of the test bacterium [5] | ED50 (protection effect) (K. pneumoniae Y-4) [mg/mouse] | ED50 (protection effect) (K. pneumoniae Y-53) [mg/mouse] | growth of the test bacterium (Escherichia coli GN 6299) | growth of the test bacterium [6] | growth of the test bacterium [7]
COc1cccc(OC)c1C(=O)N[C@@H]1C(=O)N2[C@@H]1SC(C)(C)[C@@H]2C(=O)O [Methicillin sodium, reference compound] | > 800 | > 800 | + | + | + | > 50 | > 46.6 |  |  | 
O=C(O)[C@H]1/C(=C/CO)O[C@@H]2CC(=O)N21 [Potassium clavulanate, potassium clavulanate, reference compound] |  |  |  |  |  |  |  | - and + | + | - and +
